Reference: US20240424053A1, “METHODS AND COMPOSITIONS FOR PROVIDING MYOCARDIAL PROTECTION AND TREATING MYOCARDIAL STRESS AND FIBROSIS” (Tufts Medical Center, Inc., priority 2021, published 2024)
Where a SMILES comes first, the peptide text is derived from it. The star is where a group is joined. Palmitoyl = CCCCCCCCCCCCCCCC(=O)*

Tests used:
[1] = test system: PAR1; details: cited from earlier work
[2] = target: T1, PAR1 (Homo sapiens, UniProt P25116); details: subjects with coronary artery disease; cited from earlier work
T1 construct: delivered intravenously in 100 patients with coronary artery disease (CAD) and acute coronary syndrome (ACS) undergoing cardiac catheterization; endogenous in cells; host or cells: patients of the TRIP-PCI trial (platelets ex vivo; whole body in vivo)
T1 sequence (P25116 22-425): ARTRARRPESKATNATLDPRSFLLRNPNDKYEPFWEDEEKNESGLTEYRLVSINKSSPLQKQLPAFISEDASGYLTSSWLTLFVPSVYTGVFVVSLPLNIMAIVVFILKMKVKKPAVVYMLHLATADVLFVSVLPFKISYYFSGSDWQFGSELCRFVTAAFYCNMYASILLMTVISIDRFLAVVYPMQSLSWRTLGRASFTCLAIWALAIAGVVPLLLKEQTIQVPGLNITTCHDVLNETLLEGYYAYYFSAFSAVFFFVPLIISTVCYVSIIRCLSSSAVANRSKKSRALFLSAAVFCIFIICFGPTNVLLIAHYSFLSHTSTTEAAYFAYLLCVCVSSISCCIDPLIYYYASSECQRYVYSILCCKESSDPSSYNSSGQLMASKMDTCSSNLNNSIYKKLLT

[3] = target: T2, PAR1 (Mus musculus, UniProt P30558); test: myocardial ischemia (30 min left coronary artery occlusion) / 2 h reperfusion in mice; format: in vivo; details: 10 mg/kg sc before ischemia
T2 construct: endogenous in cells; host or cells: male C57BL/6N mice, in vivo
T2 sequence (P30558 22-430): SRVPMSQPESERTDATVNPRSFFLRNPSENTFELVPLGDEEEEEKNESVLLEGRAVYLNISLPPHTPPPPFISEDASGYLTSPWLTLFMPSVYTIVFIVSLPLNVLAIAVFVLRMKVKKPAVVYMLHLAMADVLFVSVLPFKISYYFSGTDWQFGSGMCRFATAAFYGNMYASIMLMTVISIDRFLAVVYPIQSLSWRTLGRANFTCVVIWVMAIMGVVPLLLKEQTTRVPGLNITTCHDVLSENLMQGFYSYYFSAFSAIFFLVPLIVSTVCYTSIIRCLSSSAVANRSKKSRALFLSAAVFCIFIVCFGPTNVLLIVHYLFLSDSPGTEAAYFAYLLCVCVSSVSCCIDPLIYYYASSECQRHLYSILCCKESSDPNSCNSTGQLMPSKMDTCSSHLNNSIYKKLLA
Protocol: FIGS. 1A-E show protection against cardiac myocardial injury by PZ-128 in mice. […] Images were quantified using ImageJ and adjusted by weight of each cardiac slice. Data are shown as mean±SD and analyzed by two-tailed Student's t-test: **p<0.01, ***p<0.001.
A role of PAR1 in directly mediating cardiac ischemic myonecrosis—independent of established platelet-dependent effects (Strande et al., Basic Res. Cardiol. 102(4):350-358, 2007)—was also examined. […] Mice (n=7) were treated with vehicle or 10 mg/kg PZ-128 (subcutaneous; sc) just prior to ischemic injury. As shown in FIG. 1a-d, PZ-128-treated mice had 51-62% reductions in mean cardiac Infarct Area (p<0.01), Area At Risk (p<0.01), and Total Ischemic Area (p<0.0001) compared to vehicle-treated mice. […] Using echocardiography after 3 days of reperfusion, there was a significant increase in left ventricular mass (p<0.05) in vehicle compared to PZ-128 treated cohorts, with no difference in left ventricular mass between baseline and 3 days in the PZ-128 cohort (FIG. 2). […] Previous pharmacokinetic studies of subcutaneously administered PZ-128 in mice were the basis of this 10 mg/kg dose in mice (Cisowski et al., Am. J. Pathol. 179(1):513-523, 2011), selected to match the 0.3-0.5 mg/kg doses administered in humans.
Eight-week male C57BL/6N mice were vehicle (20% DMSO) or 10 mg/kg PZ-128 1 h before cardiac surgery (n=7 per group). The left coronary artery was occluded for 30 min with a ligature left in place during reperfusion. Blood flow was restored for 2 h, then the left coronary artery was reoccluded, and 5% Evans blue dye was injected via the aorta. Hearts were frozen and sectioned in OTC, before incubation in TTC for 10 min at 37° C. (a) Sections were digitally scanned and the area of white (b—Infarct area=1), red (c—Area at Risk=AAR), white+red (d—total Ischemic area), and blue (e—Reperfusion area=R) quantified using ImageJ and adjusted by weight of each cardiac slice. Data are shown as mean±SD and analyzed by two-tailed Student's t-test: **p<0.01, ***p<0.001.

Structure (SMILES): CCCCCCCCCCCCCCCC(=O)N[C@@H](CCCCN)C(=O)N[C@@H](CCCCN)C(=O)N[C@@H](CO)C(=O)N[C@@H](CCCNC(=N)N)C(=O)N[C@@H](C)C(=O)N[C@@H](CC(C)C)C(=O)N[C@@H](Cc1ccccc1)C(N)=O [PZ-128, Palmitate-KKSRALF-NH2] (Palmitoyl-KKSRALF-NH2)
- mode of action at PAR1 [1]: full PAR1 antagonists
- platelet activation and hemostasis in phase 1 [2]: suppresses platelet activation without effects on hemostasis
- reduction in mean Total Ischemic Area vs vehicle ([3]; n=7, p<0.0001): 51-62%
- increase in total area of cardiac muscle able to be reperfused vs vehicle ([3]; n=7, p<0.001): 50%
- reduction in mean Area At Risk vs vehicle ([3]; n=7, p<0.01): 51-62%
- reduction in mean cardiac Infarct Area vs vehicle ([3]; n=7, p<0.01): 51-62%
